The record followed here is paper PMC7862507, “Adrenomedullin for steroid-resistant ulcerative colitis: a randomized, double-blind, placebo-controlled phase-2a clinical trial” (Journal of Gastroenterology, 2020).

The test system of this experiment is patients with steroid-resistant UC. The experiment can be described thus: Mayo score, phase-2a clinical trial. The experiment is classed as in vivo, Japanese patients. The following applies: mean ± SD. An excerpt: Patients had to meet all criteria, namely, a Mayo score of 6 or more, a rectal bleeding subscore of at least 1, and Mayo endoscopy subscore (MES) of at least 2, at entry. Main exclusion criteria were as follows: patients with fulminant UC, patients with precancerous lesion in the colon, medication history of biologics within the last 3 months, patients with malignancy or any history of malignancy, and patients with active infection. We excluded patients with a systolic blood pressure under 90 mmHg and a pulse rate under 45 bpm for safety reasons due to the vasodilatory effect of AM. All patients provided written informed consent for all study-related procedures and were requested to be hospitalized for 2 weeks.
Patients were enrolled after confirmation of steroid-resistance defined as at least daily treatment with 30 mg or more of prednisolone. Screening tests including measurements of vital signs, blood and urine examinations, as well as a 12-lead electrocardiography (ECG), were conducted within 2 weeks prior to administration. Demographic data and disease characteristics including endoscopic disease activity of patients were also collected before randomization. Endoscopic subscores were assessed by on-site investigators and were not subjected to central review. Clinical disease activity was assessed by expert doctors according to the Mayo score and Lichtiger index. Stool samples were collected before administration of the investigational drug and after 2 weeks of treatment initiation. Measurements of fecal calprotectin and […] (FITs) were performed by a commercially available laboratory testing service (BML, Tokyo, Japan) in compliance with GCP. Additionally, measurements of complement components including CH50, C1q, C3, and C4 and evaluation of the absolute number of hematopoietic stem cells in the peripheral blood were performed before and after 2, 4, and 8 weeks by other laboratory testing services (SRL medisearch, Tokyo, Japan and LSI medience, Tokyo, Japan, respectively). The absolute number of hematopoietic stem cells in the peripheral blood was measured as CD34-positive cells using CD45FITC/CD34PE, 7AAD kit (Becton Dickinson Immunocytometry System, USA) and flow cytometry.
After hospitalization, patients received a continuous infusion of the assigned drug for 8 h per day for a total of 14 days. After the final administration of the investigational drug, patients were subjected to safety examinations and then discharged. But, if necessary due to disease activity, continuous hospitalization was allowed. Patients were requested to make an office visit at 4 and 8 weeks. Evaluations of their Mayo scores including endoscopic examinations were done at 2 and 8 weeks, whereas evaluation of the Lichtiger index was done at 2, 4, and 8 weeks. The dose of concomitant steroid was maintained for 2 weeks after drug administration, and then, a reduction in the steroid dose was allowed depending on the disease condition. Changes to the doses of other drugs, such as aminosalicylic acid, were prohibited throughout the trial.
All data were collected at each institute from March 2017 to April 2019. The primary endpoint was the change in the Mayo scores at 2 weeks. Secondary endpoints included the change in the Mayo scores at 8 weeks and the rate of clinical remission at 2 and 8 weeks, defined as a Mayo score 0; the response rate of the Mayo scores at 2 and 8 weeks, defined as an improvement of a 3-point or more decrease or at least a 30% decrease from baseline; the changes in MES at 2 and 8 weeks; the changes in the Lichtiger index at 2, 4, and 8 weeks; the changes in fecal calprotectin and FIT at 2 weeks; and finally, the changes in the given dose of steroid.
The significant level for each test was 5%. […] All data are shown as mean ± standard deviation (SD).

Each structure is given as a SMILES string.

Take `CC[C@H](C)[C@H](NC(=O)[C@H](CCC(N)=O)NC(=O)[C@H](Cc1c[nH]cn1)NC(=O)[C@H](C)NC(=O)[C@H](CC(C)C)NC(=O)[C@H](CCCCN)NC(=O)[C@H](CCC(N)=O)NC(=O)[C@@H](NC(=O)[C@@H](NC(=O)[C@@H]1CSSC[C@H](NC(=O)CNC(=O)[C@H](Cc2ccccc2)NC(=O)[C@H](CO)NC(=O)[C@H](CCCNC(=N)N)NC(=O)[C@H](CC(C)C)NC(=O)CNC(=O)[C@H](CCC(N)=O)NC(=O)[C@H](Cc2ccccc2)NC(=O)[C@H](CC(N)=O)NC(=O)[C@H](CC(N)=O)NC(=O)[C@H](CCSC)NC(=O)[C@H](CO)NC(=O)[C@H](CCC(N)=O)NC(=O)[C@H](CCCNC(=N)N)NC(=O)[C@@H](N)Cc2ccc(O)cc2)C(=O)N[C@@H](CCCNC(=N)N)C(=O)N[C@@H](Cc2ccccc2)C(=O)NCC(=O)N[C@@H]([C@@H](C)O)C(=O)N1)[C@@H](C)O)C(C)C)C(=O)N[C@@H](Cc1ccc(O)cc1)C(=O)N[C@@H](CCC(N)=O)C(=O)N[C@@H](Cc1ccccc1)C(=O)N[C@H](C(=O)N[C@@H](CC(=O)O)C(=O)N[C@@H](CCCCN)C(=O)N[C@@H](CC(=O)O)C(=O)N[C@@H](CCCCN)C(=O)N[C@@H](CC(=O)O)C(=O)N[C@@H](CC(N)=O)C(=O)N[C@H](C(=O)N[C@@H](C)C(=O)N1CCC[C@H]1C(=O)N[C@@H](CCCNC(=N)N)C(=O)N[C@@H](CO)C(=O)N[C@@H](CCCCN)C(=O)N[C@H](C(=O)N[C@@H](CO)C(=O)N1CCC[C@H]1C(=O)N[C@@H](CCC(N)=O)C(=O)NCC(=O)N[C@@H](Cc1ccc(O)cc1)C(N)=O)[C@@H](C)CC)C(C)C)[C@@H](C)O` [Adrenomedullin]: the Mayo score stood at 5.0 ± 3.2 (AM 5 ng/kg/min infusion 8 h/day x 14 days, at 2 weeks, n = 4, baseline 9.5 ± 1.0, placebo 6.8 ± 3.6); 2.0 ± 1.7 (AM 5 ng/kg/min infusion 8 h/day x 14 days, at 8 weeks, n = 3, placebo 4.5 ± 3.5 (n = 2)); 7.2 ± 2.7 (AM 10 ng/kg/min infusion 8 h/day x 14 days, at 2 weeks, n = 5, baseline 8.8 ± 1.1, placebo 6.8 ± 3.6); 5.7 ± 2.5 (AM 10 ng/kg/min infusion 8 h/day x 14 days, at 8 weeks, n = 3, placebo 4.5 ± 3.5 (n = 2)); 7.0 ± 4.1 (AM 15 ng/kg/min infusion 8 h/day x 14 days, at 2 weeks, n = 6, baseline 9.8 ± 1.6, placebo 6.8 ± 3.6); 0.0 ± 0.0 (AM 15 ng/kg/min infusion 8 h/day x 14 days, at 8 weeks, n = 3, placebo 4.5 ± 3.5 (n = 2)).
